Laboratory results from publication PMC2358886, “Evolution of pharmacologic specificity in the pregnane X receptor” (BMC Evolutionary Biology, 2008).
pEC50: −log10 of the molar value. Read-outs that look alike come from different tables or passages of the source.

What was measured:
human PXR [1] = target: T1, human PXR (Homo sapiens, UniProt O75469)
T1 sequence (O75469 1-434): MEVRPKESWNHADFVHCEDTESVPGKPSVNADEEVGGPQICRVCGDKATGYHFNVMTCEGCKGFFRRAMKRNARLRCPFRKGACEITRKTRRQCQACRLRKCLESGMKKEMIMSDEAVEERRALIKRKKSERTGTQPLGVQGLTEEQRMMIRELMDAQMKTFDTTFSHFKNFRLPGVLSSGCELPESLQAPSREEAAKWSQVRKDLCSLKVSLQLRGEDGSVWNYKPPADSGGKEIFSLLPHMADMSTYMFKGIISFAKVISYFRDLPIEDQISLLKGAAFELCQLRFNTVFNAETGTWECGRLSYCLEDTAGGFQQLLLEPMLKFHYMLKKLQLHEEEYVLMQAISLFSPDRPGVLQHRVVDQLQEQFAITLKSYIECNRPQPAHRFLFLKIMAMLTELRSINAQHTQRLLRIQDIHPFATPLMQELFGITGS

zebrafish PXR = target: T2, zebrafish PXR (Danio rerio, UniProt A5WYG8)
T2 sequence (A5WYG8 144-430): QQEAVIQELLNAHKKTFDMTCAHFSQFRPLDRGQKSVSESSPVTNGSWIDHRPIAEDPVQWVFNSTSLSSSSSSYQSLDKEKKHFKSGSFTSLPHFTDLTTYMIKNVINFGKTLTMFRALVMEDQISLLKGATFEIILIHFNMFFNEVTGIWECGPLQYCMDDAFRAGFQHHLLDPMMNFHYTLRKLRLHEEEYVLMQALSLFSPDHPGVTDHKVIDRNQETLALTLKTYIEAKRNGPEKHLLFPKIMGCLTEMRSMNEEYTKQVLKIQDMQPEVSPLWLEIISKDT

human PXR [2] = target: T1, human PXR; assay: PXR activation luciferase reporter assay, human PXR in HepG2-NTCP cells
[3] = -log(EC50), EC50 in molar units, activation of zebrafish PXR
[4] = -log(EC50), EC50 in molar units, activation of human PXR
[5] = hPXR Activity, -log(EC50), EC50 in molar units, activation of human PXR
[6] = relative to 20 μM 5α-androstan-3α-ol, assigned an efficacy of 1.0

| Compound | Toxicity (HepG2 cells) | zfPXR Activity (zebrafish PXR; [3]) | hPXR Activity (human PXR [1]) | also measured |
| --- | --- | --- | --- | --- |
| C[C@]12CC[C@H](OS(=O)(=O)O)CC1=CC[C@@H]1[C@@H]2CC[C@]2(C)C(=O)CC[C@@H]12 [AN12, 5-Androsten-3β-sulfate-17-one] | None | None |  | hPXR Efficacy (human PXR [1]): 0.22; hPXR Activity (human PXR [2]; [4]): 4.32 |
| C[C@]12CC[C@H]3[C@@H](CCC4=CC(=O)CC[C@@]43C)[C@@H]1CC[C@H]2OS(=O)(=O)O [AN17, 4-Androsten-17α-sulfate-3-one] | None | None |  | hPXR Efficacy (human PXR [1]): 0.67; hPXR Activity (human PXR [2]; [4]): 5.47 |
| C[C@H](CCC(=O)NCCS(=O)(=O)O)[C@H]1CC[C@H]2[C@@H]3CC[C@@H]4C[C@H](OS(=O)(=O)O)CC[C@]4(C)[C@H]3CC[C@]12C [BI44, 5β-Cholanic acid-3α-sulfate N-(2-sulfoethyl)-amide] | None | None |  | hPXR Efficacy (human PXR [1]; human, 1 day): 0.55; pEC50 (human PXR [2]; [5]): 4.08 |
| C[C@]12CC[C@@H]3c4ccc(OS(=O)(=O)O)cc4CC[C@H]3[C@@H]1CC[C@@H]2O [ES10, 1,3,5(10)-Estratrien-17β-ol-3-sulfate] | 200 µM | None |  | hPXR Efficacy (human PXR [1]): 0.6; hPXR Activity (human PXR [2]; [4]): 6.05 |
| CCOP(=S)(OCC)Oc1nc(Cl)c(Cl)cc1Cl [MI10, Chlorpyrifos] | None |  |  | hPXR Efficacy (human PXR [1]; human): 2.05; pEC50 (human PXR [2]; [5]): 4.59 |
| COc1c(C)c2c(c(O)c1C/C=C(\C)CCC(=O)O)C(=O)OC2 [MI21, Mycophenolic acid] | None | None | None |  |
| O=C1NC(=O)C(c2ccccc2)(c2ccccc2)N1 [MI26, Phenytoin] |  |  |  | Toxicity (HepG2 cells; human, 24 hr): 200 µM; hPXR Efficacy (human PXR [1]; human): 0.52; zfPXR Activity (zebrafish PXR): None |
| CC(C)CCC[C@@H](C)[C@H]1CC[C@H]2C3=CC=C4C[C@@H](O)CC[C@]4(C)[C@H]3CC[C@]12C [MI28, Provitamin D3] | 10 µM | None | None |  |
| CC(C)[C@@H](C)/C=C/[C@@H](C)[C@H]1CC[C@H]2C3=CC=C4C[C@@H](O)CC[C@]4(C)[C@H]3CC[C@]12C [MI29, Provitamin D2] | 20 µM | None | None |  |
| CC1=C(/C=C/C(C)=C/C=C/C(C)=C/CO)C(C)(C)CCC1 [MI31, Retinol] |  |  |  | Toxicity (HepG2 cells; human, 24 hr): 50 µM; hPXR Efficacy (human PXR [1]; human): 0.20; zfPXR Activity (zebrafish PXR): None |
| Cc1cc(O)c(C)c2c1O[C@](C)(CCC[C@H](C)CCC[C@H](C)CCCC(C)C)CC2 [MI38, β-Tocopherol] | 100 µM | None |  | hPXR Efficacy (human PXR [1]): 0.33; hPXR Activity (human PXR [2]; [4]): 4.85 |
| Cc1cc(O)cc2c1O[C@](C)(CCC[C@H](C)CCC[C@H](C)CCCC(C)C)CC2 [MI39, δ-Tocopherol] | 100 µM | None |  | hPXR Efficacy (human PXR [1]): 0.64; hPXR Activity (human PXR [2]; [4]): 5.14 |
| C=C1/C(=C\C=C2/CCC[C@]3(C)[C@@H]([C@H](C)/C=C/[C@H](C)C(C)C)CC[C@@H]23)C[C@@H](O)C[C@@H]1O [MI42, 1α-Hydroxyvitamin D2] |  | None | None | Toxicity (HepG2 cells; human, 24 hr): 50 µM |
| CC1=CC(=O)c2ccccc2C1=O [MI46, Vitamin K3] |  |  |  | Toxicity (HepG2 cells; human, 24 hr): 100 µM; hPXR Efficacy (human PXR [1]; human): ~0.15; zfPXR Activity (zebrafish PXR): None |
| CC(O)C1CCC2C3CCC4CC(O)CCC4(C)C3CCC12C (stereo not drawn) [PR1, 5β-Pregnan-3α,20α-diol] | 100 µM | None |  | hPXR Efficacy (human PXR [1]): 0.34; hPXR Activity (human PXR [2]; [4]): 5.29 |
| C[C@]12CC[C@H]3[C@@H](CCC4=CC(=O)CC[C@@]43C)[C@@H]1CC[C@@H]2C(=O)CO [PR9, 4-Pregnen-21-ol-3,20-dione] |  |  |  | Toxicity (HepG2 cells; human): 200 µM; hPXR Efficacy (human PXR [1]; human): 0.3; Zebrafish PXR EC50 (concentration class, Figure 2B) (zebrafish PXR): Inactive; zfPXR Activity (zebrafish PXR): None; pEC50 (human PXR [2]; Human PXR EC50 (concentration class, Figure 2A)): > 5.00; pEC50 (human PXR [2]; hPXR Activity): 5.61 |
| CC(=O)[C@@]1(O)CC[C@H]2[C@@H]3CC=C4C[C@@H](O)CC[C@]4(C)[C@H]3CC[C@@]21C [PR11, 5-Pregnen-3β,17-diol-20-one] | None | None | 4.47 | pEC50 (human PXR [1]): 4.30 to 4.96 |
| CC(=O)[C@H]1CC[C@H]2[C@@H]3CC[C@H]4C[C@H](O)CC[C@]4(C)[C@H]3CC[C@]12C [PR14, 5α-Pregnan-3α-ol-20-one] | None |  |  | hPXR Efficacy (human PXR [1]; human): 0.46; pEC50 (human PXR [2]; [5]): 5.38 |
| C[C@H](O)[C@H]1CC[C@H]2[C@@H]3CC[C@H]4C[C@H](O)CC[C@]4(C)[C@H]3CC[C@]12C [PR15, 5α-Pregnan-3α,20α-diol] | None | 4.58 |  | hPXR Efficacy (human PXR [1]): 0.16; zfPXR Efficacy (zebrafish PXR): 0.29; hPXR Activity (human PXR [2]; [4]): 4.28 |
| C[C@]12CC[C@@H](O)C[C@H]1CC[C@@H]1[C@@H]2[C@@H](O)C[C@@]2(C)[C@H]1CC[C@]2(O)[C@@H](O)CO [PR17, 5β-Pregnan-3α,11β,17,20α-21-pentol] | 200 µM | 3.95 | 4.33 | zfPXR Efficacy (zebrafish PXR; [6]): 0.98 |
| C[C@]12CC[C@@H](O)C[C@H]1CC[C@@H]1[C@@H]2C(=O)C[C@@]2(C)[C@H]1CC[C@]2(O)[C@@H](O)CO [PR18, 5β-Pregnan-3α,17,20α-21-tetrol-11-one] | 200 µM | 4.34 | 4.35 | zfPXR Efficacy (zebrafish PXR; [6]): 0.25 |
| C[C@]12CC[C@@H](O)C[C@H]1CC[C@@H]1[C@@H]2C(=O)C[C@@]2(C)[C@H]1CC[C@]2(O)C(=O)CO [PR19, 5β-Pregnan-3α,17,21-triol-11,20-dione] | None | 4.43 | 4.28 | zfPXR Efficacy (zebrafish PXR; [6]): 0.33 |
| C[C@@H](O)[C@@]1(O)CC[C@H]2[C@@H]3CCC4=CC(=O)CC[C@]4(C)[C@H]3CC[C@@]21C [PR21, 4-Pregnen-17α,20β-diol-3,20-dione] | 200 µM | None | None |  |
| C[C@@H](O)[C@H]1CC[C@H]2[C@@H]3CC[C@@H]4C[C@H](O)CC[C@]4(C)[C@H]3CC[C@]12C [PR23, 5β-Pregnan-3α,20β-diol] | None | 5.95 | 5.42 | zfPXR Efficacy (zebrafish PXR; [6]): 0.25 |
| C[C@]12CC[C@@H](O)C[C@H]1CC[C@@H]1[C@@H]2[C@@H](O)C[C@@]2(C)[C@H]1CC[C@]2(O)C(=O)CO [PR24, 5β-Pregnan-3α,11β,17,21-tetrol-20-one] | None | 3.94 | 4.33 | zfPXR Efficacy (zebrafish PXR; [6]): 0.11 |
| CC(=O)[C@H]1CC[C@H]2[C@@H]3CC=C4C[C@@H](OS(=O)(=O)O)CC[C@]4(C)[C@H]3CC[C@]12C [PR26, 5-Pregnen-20-one-3β-sulfate] | None | 4.95 | None | zfPXR Efficacy (zebrafish PXR; [6]): 0.23 |
